Test results published in patent US11014902B2, “MYC G-quadruplex stabilizing small molecules and their use” (The United States of America, as represented by the …, priority 2015, dated 2021).

Assays:
KMS27 = assay: Multiple myeloma cell viability; format: cell-based; conditions: KMS-27
Protocol: (§1) Human multiple myeloma and Burkitt's Lymphoma cell lines L363, CA46, MM-1R, KMS-11, and MM-1S were cultured and authenticated as previously described (Simmons, et al., Molecular oncology 2014, 8, 261). All plasma derived cell lines were cultured in RPMI-1640 (2 mM L-glutamine, 10% fetal bovine serum (FBS), 100 U/ml penicillin, 100 μg/ml streptomycin: Gibco) and incubated at 37° C. with 5% CO2. Viability experiments were performed in quadruplicate on 96-well plates (Costar) at designated time and dose points. MTS reagent was then directly added, incubated at 37° C. for 90 min, and absorbance of MTS formazan was read at 500 nm on an Omega 640 spectrophotometer. Percentage cell viability was normalized to the absorbance of untreated (DMSO) wells. In the case of cells harvested for their protein or RNA, pellets were flash frozen and stored at −80° C. overnight prior to use.
(§2) Additional multiple myeloma cell lines were assayed for cell viability in the presence of Compound 23, and the following IC50 values were determined.

KMS12PE = assay: Multiple myeloma cell viability; format: cell-based; conditions: Homo sapiens, KMS-12-PE
Protocol: as §1, §2

AMO1 = assay: Multiple myeloma cell viability; format: cell-based; conditions: Homo sapiens
Protocol: as §1, §2

[1] = tested on: c-Myc protein in H1299 cells; assay: c-Myc protein expression by Western blot, H1299; format: cell-based, human; conditions: 10 μM
Protocol: The effect of Compound 23 on the expression of c-Myc protein in the human lung cancer cell lines H1299 and H157 was also assayed. H1299 and H157 cells were treated with 10 μM Compound 23 and c-Myc protein expression levels quantified by Western blot. In Compound 23-treated H1299 cells, c-Myc protein expression levels were approximately 55% compared to untreated control cells. In Compound 23-treated H157 cells, c-Myc protein expression levels were approximately 74% compared to untreated control cells.

[2] = target: c-MYC G4 DNA (biotin-labeled Pu22 G-quadruplex); assay: Surface plasmon resonance (SPR); format: binding; conditions: SPR, 25° C.; read-out: equilibrium dissociation constant (Kd)
Protocol: In order to quantitatively assess the binding affinity of Compound 1 with the c-MYC G4, surface plasmon resonance (SPR) experiments (De Crescenzo, et al., Cell Mol Bioeng 2008, 1, 204) were performed using a biotinylated c-MYC G4 oligonucleotide. The oligonucleotide was immobilized to a streptavidin-coated chip, and binding was measured as a function of concentration. (FIG. 2). […] Furthermore, Compound 1 interacts with quadruplex DNA through a reversible binding interaction, and rapid, complete dissociation can be observed in the sensogram (FIG. 2C).
SPR experiments were performed with a Biacore T200 (GE Healthcare). […] The c-MYC DNA was then captured (FC2: 1245 Ru) on a Series S Sensor CM5 Chip (GE Healthcare) with amine-coupled Neutravidin (FC1: 4466 Ru, FC2: 5458 Ru). Single Cycle Kinetics (SCK) experiments were carried out with five injections of increasing concentration of analyte solution, which was prepared by a three-fold serial dilution of compound with buffer (10 mM Tris pH 7.5, 100 mM KCl, 3 mM EDTA) containing 3% DMSO. Binding analysis was conducted at a flow rate of 30 μL/min at 25° C. In each run, the association phase and the subsequent dissociation phase were monitored for 1 min and 10 min, respectively. Prior to each compound injection, three buffer injections were made. […]

[3] = tested on: peripheral blood mononucleocytes; assay: Viability of peripheral blood mononucleocytes; format: cell-based; conditions: healthy volunteer cells; doses 25% higher than for cell treatments
Protocol: (§3) Since two thirds of multiple myeloma cases involve deregulated c-MYC expression (Kuehl and Bergsagel, Blood 2012, 120, 2351; Shou, et al., Proc Natl Acad Sci USA 2000, 97, 228), we elected to evaluate the cell viability effects of Compound 1 in a multiple myeloma model. […] This suppression was maintained over 72 hours, which is notable given the characteristic rapid replenishment of the protein—a phenomenon that complicates targeting c-Myc at the protein level (FIG. 4C). This effect was maintained across a genetically diverse set of 4 multiple myeloma lines. We observed decreases in c-MYC translation in all lines tested, and this effect also correlated with decreases in viability (FIG. 4D).

[4] = tested on: CA46 Burkitt's Lymphoma line; assay: CA46 cell viability; format: cell-based, human
Protocol: as §3
as §1, with “Viability experiments were performed in quadruplicate on 96-well plates (Costar) at designated time and dose points.” left out, “In the case of cells harvested for their protein or RNA, pellets were flash frozen and stored at −80° C. overnight prior to use.” left out

[5] = Stability study in culture media (LC/MS); format: physicochemical; conditions: RPMI-1640, LC/MS, up to 72 h
From the text: Having established the reversible binding of Compound 1 to quadruplex DNA and selective quadruplex-dependent silencing of c-Myc, one consideration that remained was the presence of a benzylaminophenol functional group in Compound 1. It has previously been reported that compounds containing this functional group can have the propensity to eject amines, form an o-quinone methide, and alkylate proteins (Weinert, et al., J Am Chem Soc 2006, 128, 11940; Herzig, et al., J Org Chem 2006, 71, 4130; McLean, et al., Bioorg Med Chem Lett 2009, 19, 6717). To assess whether Compound 1 was undergoing this reactivity, a small series of analogs was prepared. In FIG. 6C, compounds lacking the phenol or amino group were prepared and evaluated. […] Additionally, the stability of Compound 1 was evaluated (see FIG. 7). […] Additionally, the putative hydrolysis products arising from quinone methide formation were not observed at any time by LC/MS.
Compound 1 (10 μL of 1 mM DMSO solution) was added to 490 μL RPMI-1640 culture media. After 1 min, 25 h, 48 h, and 72 h, 100 μL of this solution was diluted into 100 μL acetonitrile. The mixture was centrifuged at 5500 rpm for 1 min and the supernatant was removed from the pellet. […]
Compound 1 (10 μL of 1 mM DMSO solution) was added to 490 μL RPMI-1640 culture media. […] The mass corresponding to Compound 1 (M+H^+=393) was extracted and the chromatogram evaluated. […]

Cc1oc2ccc(O)c(CN3CCCCCC3)c2c1C(=O)Nc1ccc(C(F)(F)F)cc1 [Compound 23]
IC50 (KMS27): 5.06 µM | IC50 (KMS12PE): 5.33 µM | IC50 (AMO1): 5.92 µM | c-Myc protein expression levels compared to untreated control cells [1]: approximately 55%

Cc1ccc(NC(=O)c2c(C)oc3ccc(O)c(CN4CCCCCC4)c23)cc1 [Compound 1]
Kd [2]: 4.5 ± 1.4 µM | viability [3]: did not alter viability | cell viability [4]: negligible changes | stability in culture media [5]: persisted in culture media over a period of 72 h
